Assay results reported in patent publication US9045468B2, “2,5-methano- and 2,5-ethano-tetrahydrobenzazepine derivatives and use thereof to block reuptake of norepinephrine, dopamine, and serotonin” (Albany Molecular Research, Inc., priority 2010, dated 2015).

Key:
hNET = hNET (Homo sapiens (Human), UniProt P23975); assay: NET radioligand binding assay ([3H]nisoxetine, HEK-293 membranes); details: recombinant HEK-293 membranes, [3H]nisoxetine; read-out: Binding Affinity (IC50, nM) NET
SERT = assay: Ex vivo transporter occupancy assay, SERT ([3H]citalopram, brain tissue); assay type: in vivo; details: dosed orally, time until sacrifice 3 h
Description: (§1) The general procedure for brain tissue collection and transporter occupancy assessment is briefly described as follows. Mice were sacrificed by asphyxiation in CO2, rats by decapitation and dogs by IV injection of euthanasia solution. For mice and rats, after the brains were removed from the skull, the forebrain tissue (removal of the brainstem and cerebellum) was used for SERT, NET, and DAT occupancy assessment. In dogs, the striatum was dissected for DAT occupancy and the remaining forebrain tissue (without the striatum, brainstem, and cerebellum) was used for SERT and NET occupancy assessment. The brain tissues were frozen in chilled isopentane and stored at −80° C. until homogenization.
(§2) The brain tissues were thawed and then homogenized using a polytron homogenizer (Kinematica). Sample aliquots were frozen immediately and stored at −80° C. Protein content was measured for each sample using a Coomassie protein assay kit (Pierce).
(§3) On the day of ex vivo binding for occupancy assessment, frozen sample aliquots were thawed and needle homogenized, and 100 μg of the tissue was incubated for SERT, NET, and DAT binding under assay conditions summarized in Table 1. After incubation, the reactions were terminated by the addition of ice-cold assay buffer and rapid filtration through a Brandel Cell Harvester using FPXLR-196 filters. The filters were washed twice with ice-cold incubation buffer, punched into a clear plate prior to the addition of 200 ul scintillation fluid per well. Radioligand was measured using a Wallac Microbeta liquid scintillation counter.
(§4) The specific binding was calculated by subtracting the value of the non-specific binding from that of the total binding in each sample. The percent occupancy was calculated as (1−specific binding in drug treated/specific binding in vehicle treated)×100%. […] Nonlinear regression was performed using GraphPad Prism version 3.00 (GraphPad Software, San Diego, Calif.).

hSERT = hSERT (Homo sapiens (Human), UniProt P31645); assay: SERT radioligand binding assay ([125I]RTI-55, HEK-293 membranes); details: recombinant HEK-293 membranes, [125I]RTI-55; read-out: Binding Affinity (IC50, nM) SERT
Sequence of hSERT (P31645 whole entry): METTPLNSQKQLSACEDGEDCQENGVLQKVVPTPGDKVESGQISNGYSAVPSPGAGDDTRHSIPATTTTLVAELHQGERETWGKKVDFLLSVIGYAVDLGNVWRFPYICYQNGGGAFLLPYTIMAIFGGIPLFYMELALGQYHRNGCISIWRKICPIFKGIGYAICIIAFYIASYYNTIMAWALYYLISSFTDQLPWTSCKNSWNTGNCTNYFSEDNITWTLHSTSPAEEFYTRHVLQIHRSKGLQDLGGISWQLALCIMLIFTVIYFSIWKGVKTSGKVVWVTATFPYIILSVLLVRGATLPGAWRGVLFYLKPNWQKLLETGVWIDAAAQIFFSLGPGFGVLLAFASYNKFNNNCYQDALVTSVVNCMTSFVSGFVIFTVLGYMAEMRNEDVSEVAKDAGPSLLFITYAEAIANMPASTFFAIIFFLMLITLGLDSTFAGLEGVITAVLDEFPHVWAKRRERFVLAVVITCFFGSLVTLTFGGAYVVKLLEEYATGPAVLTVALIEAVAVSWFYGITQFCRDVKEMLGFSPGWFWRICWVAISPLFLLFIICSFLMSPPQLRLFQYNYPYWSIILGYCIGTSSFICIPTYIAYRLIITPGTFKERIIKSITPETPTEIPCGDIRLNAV

hDAT = hDAT (Homo sapiens (Human), UniProt Q01959); assay: DAT radioligand binding assay ([125I]RTI-55, HEK-293 membranes); details: recombinant HEK-293 membranes, [125I]RTI-55; read-out: Binding Affinity (IC50, nM) DAT
Sequence of hDAT (Q01959 whole entry): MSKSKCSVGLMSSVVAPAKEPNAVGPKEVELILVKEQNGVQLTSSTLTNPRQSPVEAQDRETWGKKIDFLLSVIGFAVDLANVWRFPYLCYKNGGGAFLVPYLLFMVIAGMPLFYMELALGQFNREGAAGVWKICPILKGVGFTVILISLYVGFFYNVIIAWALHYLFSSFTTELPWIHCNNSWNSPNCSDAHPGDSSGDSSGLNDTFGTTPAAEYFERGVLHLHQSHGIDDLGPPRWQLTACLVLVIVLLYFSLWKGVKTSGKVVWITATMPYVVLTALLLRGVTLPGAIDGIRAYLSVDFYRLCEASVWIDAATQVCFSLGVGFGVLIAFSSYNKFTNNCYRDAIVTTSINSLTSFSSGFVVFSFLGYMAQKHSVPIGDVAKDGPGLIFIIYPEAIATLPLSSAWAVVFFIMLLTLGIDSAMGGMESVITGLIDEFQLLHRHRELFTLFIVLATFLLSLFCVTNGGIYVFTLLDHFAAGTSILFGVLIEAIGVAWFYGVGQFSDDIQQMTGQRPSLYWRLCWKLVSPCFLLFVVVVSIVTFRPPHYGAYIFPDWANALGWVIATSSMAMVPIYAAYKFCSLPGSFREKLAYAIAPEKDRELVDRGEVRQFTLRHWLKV

DAT = assay: Ex vivo transporter occupancy assay, DAT ([125I]RTI-55, brain tissue); assay type: in vivo; details: dosed orally, time until sacrifice 3 h
Description: as §1, §2
as §3, with “After incubation, the reactions were terminated by the addition of ice-cold assay buffer and rapid filtration through a Brandel Cell Harvester using FPXLR-196 filters.” left out
as §4

NET = assay: Ex vivo transporter occupancy assay, NET ([3H]nisoxetine, brain tissue); assay type: in vivo; details: dosed orally, time until sacrifice 3 h
Description: as §1, §2
as §3, with “After incubation, the reactions were terminated by the addition of ice-cold assay buffer and rapid filtration through a Brandel Cell Harvester using FPXLR-196 filters.” left out
as §4

Sequence of hNET (P23975 whole entry): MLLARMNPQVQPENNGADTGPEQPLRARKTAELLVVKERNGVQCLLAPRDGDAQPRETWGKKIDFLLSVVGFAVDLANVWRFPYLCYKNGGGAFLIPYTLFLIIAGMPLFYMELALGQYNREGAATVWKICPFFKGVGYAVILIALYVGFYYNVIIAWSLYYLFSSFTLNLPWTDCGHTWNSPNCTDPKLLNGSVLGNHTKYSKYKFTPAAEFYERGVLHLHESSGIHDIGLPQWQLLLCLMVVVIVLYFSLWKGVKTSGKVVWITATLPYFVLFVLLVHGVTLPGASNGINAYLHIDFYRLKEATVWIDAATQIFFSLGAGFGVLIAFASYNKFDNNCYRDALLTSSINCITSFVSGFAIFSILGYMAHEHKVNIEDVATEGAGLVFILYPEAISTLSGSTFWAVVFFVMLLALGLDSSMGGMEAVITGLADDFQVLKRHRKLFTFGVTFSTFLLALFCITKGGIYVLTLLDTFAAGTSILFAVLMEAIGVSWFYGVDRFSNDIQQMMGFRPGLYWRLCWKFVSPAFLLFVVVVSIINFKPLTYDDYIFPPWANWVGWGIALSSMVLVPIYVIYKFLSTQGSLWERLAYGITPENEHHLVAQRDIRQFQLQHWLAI

Structure (SMILES)	IC50 (hNET) [nM]	% Occupancy SERT (SERT; 1 mg/kg) [%]	IC50 (hSERT) [nM]	IC50 (hDAT) [nM]	% Occupancy DAT (DAT; 1 mg/kg) [%]	% Occupancy NET (NET; 1 mg/kg) [%]	% Occupancy SERT (SERT; 3 mg/kg) [%]	% Occupancy DAT (DAT; 3 mg/kg) [%]	% Occupancy NET (NET; 3 mg/kg) [%]
Fc1ccc(C23CCN(CC2)Cc2cc(Oc4ccc(C(F)(F)F)nn4)ccc23)cc1Cl [Example 47, 5-(3-chloro-4-fluorophenyl)-2,5-ethano-8-(6-(trifluoromethyl)pyridazin-3-yloxy)-2,3,4,5-tetrahydro-1H-benzo[c]azepine]	112	34	6.4	9	17	0	–	–	–
FC(F)Oc1ccc(-c2ccc3c(c2)CN2CCC3(c3ccc(Cl)cc3)C2)nn1 (single isomer, unassigned) [6(−), 5-(4-chlorophenyl)-8(6-(difluoromethoxy)pyridazin-3-yl)-2,5-methano-2,3,4,5-tetrahydro-1H-benzo[c]azepine]	275	–	5.9	87.2	–	–	59	12	0
Nc1cnc(-c2ccc3c(c2)CN2CCC3(c3ccc(Cl)c(Cl)c3)CC2)cn1 [Example 42, 5-(5-(3,4-dichlorophenyl)-2,5-ethano-2,3,4,5-tetrahydro-1H-benzo[c]azepin-8-yl)pyrazin-2-amine]	155	–	5.9	9.2	–	–	82	54	39
CS(=O)(=O)c1ccc(-c2ccc3c(c2)CN2CCC3(c3ccc(Cl)cc3)CC2)cc1 [Example 26, 5-(4-chlorophenyl)-2,5-ethano-8-(4-(methylsulfonyl)phenyl)-2,3,4,5-tetrahydro-1H-benzo[c]azepine]	432	14	7.2	63	3	0	–	–	–
Clc1ccc(C23CCN(CC2)Cc2cc(-c4cnccn4)ccc23)cc1 [Example 17, 5-(4-chlorophenyl)-2,5-ethano-8-(pyrazin-2-yl)-2,3,4,5-tetrahydro-1H-benzo[c]azepine]	2300	77	5.3	83.5	0	12	–	–	–
FC(F)(F)c1ccc(Oc2ccc3c(c2)CN2CCC3(c3ccc(Cl)c(Cl)c3)CC2)nn1 [Example 45, 5-(3,4-dichlorophenyl)-2,5-ethano-8-(6-(trifluoromethyl)pyridazin-3-yloxy)-2,3,4,5-tetrahydro-1H-benzo[c]azepine]	35.1	46	4.8	0.7	17	0	–	–	–
Oc1ccc(-c2ccc3c(c2)CN2CCC3(c3ccc(Cl)cc3)C2)nn1 (single isomer, unassigned) [7(−), 6-(5-(4-chlorophenyl)-2,5-methano-2,3,4,5-tetrahydro-1H-benzo[c]azepin-8-yl)pyridazin-3-ol]	103	70	6.4	16.6	1	46	–	–	–
Fc1cc(C23CCN(CC2)Cc2cc(Oc4ccc(C(F)(F)F)nn4)ccc23)ccc1Cl [Example 48, 5-(4-chloro-3-fluorophenyl)-2,5-ethano-8-(6-(trifluoromethyl)pyridazin-3-yloxy)-2,3,4,5-tetrahydro-1H-benzo[c]azepine]	134	21	7.2	10.1	12	0	–	–	–
FC(F)(F)c1ccc(Oc2ccc3c(c2)CN2CCC3(c3ccc(Cl)cc3)CC2)nn1 [Example 32, 5-(4-chlorophenyl)-2,5-ethano-8-(6-(trifluoromethyl)pyridazin-3-yloxy)-2,3,4,5-tetrahydro-1H-benzo[c]azepine]	124	–	4.3	36.5	–	–	74	42	0
Nc1cnc(-c2ccc3c(c2)CN2CCC3(c3ccc(Cl)cc3)CC2)cn1 [Example 18, 5-(5-(4-chlorophenyl)-2,5-ethano-2,3,4,5-tetrahydro-1H-benzo[c]azepin-8-yl)pyrazin-2-amine]	925	–	3.5	47.6	–	–	89	15	6
O=C1NC2C=CC(c3ccc4c(c3)CN3CCC4(c4ccc(Cl)cc4)CC3)=CC2O1 (stereo not drawn) [Example 22, 6-(5-(4-chlorophenyl)-2,5-ethano-2,3,4,5-tetrahydro-1H-benzo[c]azepin-8-yl)-3,3a-dihydrobenzo[d]oxazol-2(7aH)-one]	806	–	3.4	58.6	–	–	60	5	0
